Measurements: the supplement of paper PMC10307832

Legend:
Assay in all cases: relative viability (nuclei count vs DMSO), 5 days (fraction); higher = more cells survive
A-427 = system: A-427
In short: (§1)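 Cells from lung cancer lines were seeded into 1536-well plates and, one day later, dosed by pin tool. Treatments were either a single drug or a fixed dose of an anchor drug with five library-drug doses (not always all listed) in √10 steps. After 5 days, nuclei were stained in a one-step fixation (final 0.05% Triton X-100, 1% formaldehyde, 1 ug/ml Hoechst) and counted on 4× images, and relative viability is the treated-to-vehicle nuclei ratio, as the median of duplicate plates.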

COR-L 105 = system: COR-L 105
In short: as §1

ChaGo-K-1 = system: ChaGo-K-1
In short: as §1

EKVX = system: EKVX
In short: as §1

EMC-BAC-2 = system: EMC-BAC-2
In short: as §1

H3255 = system: H3255
In short: as §1

HCC-366 = system: HCC-366
In short: as §1

LK-2 = system: LK-2
In short: as §1

LOU-NH91 = system: LOU-NH91
In short: as §1

NCI-H1563 = system: NCI-H1563
In short: as §1

NCI-H1666 = system: NCI-H1666
In short: as §1

NCI-H1734 = system: NCI-H1734
In short: as §1

NCI-H1755 = system: NCI-H1755
In short: as §1

NCI-H1792 = system: NCI-H1792
In short: as §1

NCI-H1944 = system: NCI-H1944
In short: as §1

NCI-H1975 = system: NCI-H1975
In short: as §1

NCI-H2170 = system: NCI-H2170
In short: as §1

NCI-H23 = system: NCI-H23
In short: as §1

NCI-H441 = system: NCI-H441
In short: as §1

NCI-H520 = system: NCI-H520
In short: as §1

NCI-H596 = system: NCI-H596
In short: as §1

PC-3 [JPC-3] = system: PC-3 [JPC-3]
In short: as §1

SK-MES-1 = system: SK-MES-1
In short: as §1

COc1cc(N2CCC(C(N)=O)CC2)ccc1Nc1nc(N)c(Cl)c(Nc2ccccc2S(=O)(=O)C(C)C)n1 [HG-5-88-01] + C[C@@H](Oc1cc(-c2cnn(C3CCNCC3)c2)cnc1N)c1c(Cl)ccc(F)c1Cl [Crizotinib] (partner 1 µM)
relative viability (A-427; first compound 0.04 µM): 0.93 | relative viability (A-427; first compound 0.1265 µM): 0.952 | relative viability (A-427; first compound 0.4 µM): 0.951 | relative viability (A-427; first compound 1.265 µM): 0.843 | relative viability (A-427; first compound 4 µM): 0.791 | relative viability (COR-L 105; first compound 0.04 µM): 0.855 | relative viability (COR-L 105; first compound 0.1265 µM): 0.728 | relative viability (COR-L 105; first compound 0.4 µM): 0.519 | relative viability (COR-L 105; first compound 1.265 µM): 0.346 | relative viability (COR-L 105; first compound 4 µM): 0.366 | relative viability (ChaGo-K-1; first compound 0.04 µM): 1.12 | relative viability (ChaGo-K-1; first compound 0.1265 µM): 1.14 | relative viability (ChaGo-K-1; first compound 0.4 µM): 1.03 | relative viability (ChaGo-K-1; first compound 1.265 µM): 0.888 | relative viability (ChaGo-K-1; first compound 4 µM): 0.787 | relative viability (EKVX; first compound 0.04 µM): 0.989 | relative viability (EKVX; first compound 0.1265 µM): 0.93 | relative viability (EKVX; first compound 0.4 µM): 0.892 | relative viability (EKVX; first compound 4 µM): 0.843 | relative viability (EMC-BAC-2; first compound 0.04 µM): 0.776 | relative viability (EMC-BAC-2; first compound 0.1265 µM): 0.748 | relative viability (EMC-BAC-2; first compound 0.4 µM): 0.769 | relative viability (EMC-BAC-2; first compound 1.265 µM): 0.77 | relative viability (EMC-BAC-2; first compound 4 µM): 0.667 | relative viability (H3255; first compound 0.04 µM): 0.844 | relative viability (H3255; first compound 0.1265 µM): 0.949 | relative viability (H3255; first compound 0.4 µM): 0.833 | relative viability (H3255; first compound 4 µM): 0.308 | relative viability (HCC-366; first compound 0.04 µM): 0.642 | relative viability (HCC-366; first compound 0.1265 µM): 0.487 | relative viability (HCC-366; first compound 0.4 µM): 0.468 | relative viability (HCC-366; first compound 1.265 µM): 0.441 | relative viability (HCC-366; first compound 4 µM): 0.198 | relative viability (LK-2; first compound 0.04 µM): 0.24 | relative viability (LK-2; first compound 0.1265 µM): 0.227 | relative viability (LK-2; first compound 0.4 µM): 0.234 | relative viability (LK-2; first compound 1.265 µM): 0.249 | relative viability (LK-2; first compound 4 µM): 0.21 | relative viability (LOU-NH91; first compound 0.04 µM): 0.745 | relative viability (LOU-NH91; first compound 0.1265 µM): 0.737 | relative viability (LOU-NH91; first compound 0.4 µM): 0.671 | relative viability (LOU-NH91; first compound 1.265 µM): 0.494 | relative viability (LOU-NH91; first compound 4 µM): 0.566 | relative viability (NCI-H1563; first compound 0.04 µM): 0.917 | relative viability (NCI-H1563; first compound 0.1265 µM): 0.88 | relative viability (NCI-H1563; first compound 0.4 µM): 0.832 | relative viability (NCI-H1563; first compound 1.265 µM): 0.806 | relative viability (NCI-H1563; first compound 4 µM): 0.854 | relative viability (NCI-H1666; first compound 0.04 µM): 1.01 | relative viability (NCI-H1666; first compound 0.1265 µM): 1.1 | relative viability (NCI-H1666; first compound 0.4 µM): 0.941 | relative viability (NCI-H1666; first compound 1.265 µM): 0.794 | relative viability (NCI-H1666; first compound 4 µM): 0.594 | relative viability (NCI-H1734; first compound 0.04 µM): 0.71 | relative viability (NCI-H1734; first compound 0.1265 µM): 0.709 | relative viability (NCI-H1734; first compound 0.4 µM): 0.681 | relative viability (NCI-H1734; first compound 1.265 µM): 0.497 | relative viability (NCI-H1734; first compound 4 µM): 0.64 | relative viability (NCI-H1755; first compound 0.1265 µM): 0.86 | relative viability (NCI-H1755; first compound 0.4 µM): 0.854 | relative viability (NCI-H1755; first compound 1.265 µM): 0.768 | relative viability (NCI-H1755; first compound 4 µM): 0.933 | relative viability (NCI-H1792; first compound 0.04 µM): 1.11 | relative viability (NCI-H1792; first compound 0.1265 µM): 0.968 | relative viability (NCI-H1792; first compound 0.4 µM): 0.869 | relative viability (NCI-H1792; first compound 1.265 µM): 0.947 | relative viability (NCI-H1792; first compound 4 µM): 0.978 | relative viability (NCI-H1944; first compound 0.04 µM): 1.09 | relative viability (NCI-H1944; first compound 0.1265 µM): 1.13 | relative viability (NCI-H1944; first compound 0.4 µM): 1.09 | relative viability (NCI-H1944; first compound 1.265 µM): 0.82 | relative viability (NCI-H1944; first compound 4 µM): 1.06 | relative viability (NCI-H1975; first compound 0.04 µM): 1.03 | relative viability (NCI-H1975; first compound 0.1265 µM): 1.03 | relative viability (NCI-H1975; first compound 0.4 µM): 0.821 | relative viability (NCI-H1975; first compound 1.265 µM): 0.794 | relative viability (NCI-H1975; first compound 4 µM): 0.334 | relative viability (NCI-H2170; first compound 0.04 µM): 1.23 | relative viability (NCI-H2170; first compound 0.1265 µM): 1.24 | relative viability (NCI-H2170; first compound 0.4 µM): 1.18 | relative viability (NCI-H2170; first compound 1.265 µM): 0.977 | relative viability (NCI-H2170; first compound 4 µM): 1.28 | relative viability (NCI-H23; first compound 0.04 µM): 0.542 | relative viability (NCI-H23; first compound 0.1265 µM): 0.43 | relative viability (NCI-H23; first compound 0.4 µM): 0.481 | relative viability (NCI-H23; first compound 1.265 µM): 0.471 | relative viability (NCI-H23; first compound 4 µM): 0.26 | relative viability (NCI-H441; first compound 0.04 µM): 0.655 | relative viability (NCI-H441; first compound 0.1265 µM): 0.764 | relative viability (NCI-H441; first compound 0.4 µM): 0.554 | relative viability (NCI-H441; first compound 1.265 µM): 0.648 | relative viability (NCI-H441; first compound 4 µM): 0.431 | relative viability (NCI-H520; first compound 0.04 µM): 0.907 | relative viability (NCI-H520; first compound 0.1265 µM): 0.704 | relative viability (NCI-H520; first compound 0.4 µM): 0.711 | relative viability (NCI-H520; first compound 1.265 µM): 0.762 | relative viability (NCI-H520; first compound 4 µM): 0.663 | relative viability (NCI-H596; first compound 0.04 µM): 0.949 | relative viability (NCI-H596; first compound 0.1265 µM): 1.04 | relative viability (NCI-H596; first compound 0.4 µM): 1.02 | relative viability (NCI-H596; first compound 1.265 µM): 0.936 | relative viability (NCI-H596; first compound 4 µM): 0.734 | relative viability (PC-3 [JPC-3]; first compound 0.04 µM): 0.983 | relative viability (PC-3 [JPC-3]; first compound 0.1265 µM): 1.03 | relative viability (PC-3 [JPC-3]; first compound 0.4 µM): 1.07 | relative viability (PC-3 [JPC-3]; first compound 1.265 µM): 0.937 | relative viability (PC-3 [JPC-3]; first compound 4 µM): 0.64 | relative viability (SK-MES-1; first compound 0.04 µM): 0.96 | relative viability (SK-MES-1; first compound 0.1265 µM): 0.988 | relative viability (SK-MES-1; first compound 0.4 µM): 1.01 | relative viability (SK-MES-1; first compound 1.265 µM): 0.978 | relative viability (SK-MES-1; first compound 4 µM): 0.923
